In EP0702683B1, “06-SUBSTITUTED GUANINE DERIVATIVES, A PROCESS FOR THEIR PREPARATION AND THEIR USE IN TREATING TUMOUR CELLS” (Cancer Research Technology Limited, priority 1993, dated 1994):
Read-outs that look alike come from different tables or passages of the source.

What was measured:
A375M cells = test: Sensitization of A375M cells to BCNU (MTT assay); format: cell-based, human; conditions: for A375M sensitization (D50.^C/D50.^I) 1.0uM: inactivator 1.0uM 2 hours before; for A375M sensitization (D50.^C/D50.^I) 0.5uM: inactivator 0.5uM 2 hours before; for A375M sensitization (D50.^C/D50.^I) 5.0uM: inactivator 5.0uM 2 hours before
Protocol: Sensitization of A375M cells to the cytotoxic effects of BCNU was analysed by MTT assay ^24 differing from the XTT assay described above as follows. […] After 6 days MTT solution (4mg/ml) was added and cells incubated for 3 hours at 37°C. Medium was aspirated and the resulting purple formazan crystals were solubilised in DMSO (120μl) and cell viability was quantified by measuring absorption at 540nm using a microtitre plate reader.

[1] = Stability of inactivators at 37°C (spectrophotometric half life); format: physicochemical
Protocol: Inactivators (10mM in DMSO) were diluted to 0.1mM in prewarmed degassed buffer I (1mM EDTA, 50mM Tris pH 8.3) or PBS (pH 7-7.2). […] Samples were immediately transferred to a CARY13 spectrophotometer (cuvette block held at 37°C) and scanned at an appropriate wavelength (according to the spectral properties of the compound) at 3-10 minute intervals for up to 80 hours. The results were expressed as percentage absorbance change versus time and T1/2 values (half life) extrapolated from this.

ATase [2] = target: T1, ATase (Homo sapiens, UniProt P16455); test: In vitro ATase inactivation assay with purified recombinant human ATase; format: biochemical; parameters: made in house
T1 sequence (P16455 1-207): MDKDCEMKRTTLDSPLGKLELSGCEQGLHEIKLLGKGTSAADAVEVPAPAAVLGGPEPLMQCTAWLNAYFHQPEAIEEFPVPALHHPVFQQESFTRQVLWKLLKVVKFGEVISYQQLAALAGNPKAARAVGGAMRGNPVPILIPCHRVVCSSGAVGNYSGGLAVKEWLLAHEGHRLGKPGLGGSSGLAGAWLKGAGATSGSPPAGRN
Protocol: The cDNA cloning and overexpression of the human ATase has been reported previously^23. Purification of the recombinant proteins was achieved either by affinity chromatography through a DNA-cellulose column as described by Wilkinson et al.,^25, 26, or by DEAE-cellulose ion-exchange chromatography. For the latter, the ATase protein was partially purified by ammonium sulphate precipitation (30 - 60%) and dialysed against 10 mM Tris-HCl pH 7.5, 1 mM DTT, 2 mM EDTA, 10% glycerol, before loading on a DEAF-cellulose column. The ATase was then eluted with a 0-0.1 M NaCl gradient.
Compounds to be tested were dissolved in DMSO to a final concentration of 10 mM and diluted just before use in buffer I containing 1 mg/ml bovine serum albumin (IBSA). Recombinant ATase was diluted in IBSA and titrated in order that the reaction be conducted under ATase, and not substrate, limiting conditions. In each assay, fixed amounts of ATase (60-75 fmol) were incubated with varying amounts of 0^6-benzylguanine, or test compound in a total volume of 200 µl of IBSA containing 10 µg of calf thymus DNA at 37°C for 1 hour. The [^3H]-methylated-DNA substrate (100 µl containing 6.7 µg of DNA and 100 fmol of 0^6-methylguanine) was added and incubation continued at 37° for 1 hour, until the reaction was completed. Following acid hydrolysis of the DNA as previously described^21 the [^3H]-methylated protein was recovered and quantitated by liquid scintillation counting. Samples were typically assayed in duplicate and experiments repeated several times. I50 is the concentration of inactivator required to produce a 50% reduction in ATase activity.

ATase [3] = target: T1, ATase; test: Inactivation of ATase activity in Raji cells; format: cell-based; parameters: endogenous in cells; host or cells: Raji; conditions: Raji cells, 2 hours at 37°C; read-out: Raji I50
Protocol: (§1) Mammalian cells were cultured under standard conditions. For example, Raji (a human lymphoblastoid cell line from a Burkitt's lymphoma) cells were grown in suspension culture in RPMI medium supplemented with 10% horse serum. A375M cells are human melanoma cells from which the xenografts described below were established following subcutaneous injection into nude mice: WiDr cells are a human colon carcinoma cell line: Hamster+120 cells are a mitozolomide-selected subline of a Chinese hamster lung fibroblast V79 cell line called RJKO: Yoshida cells are a rat carcinosarcoma cell line and YRbus is a busulphan resistant subline thereof: XP cells are an SV40-transformed fibroblast cell line originally from the skin of a Xeroderma pigmentosum patient, pHMGhAT2b cells are a clone of these cells that have been transfected with a mammalian cell expression vector containing the human ATase cDNA and pHMGla cells are a clone that have been transfected with the expression vector only (i.e. one not containing the human ATase cDNA). Cell pellets were resuspended in cold (4°C) buffer I containing 2 µg/ml leupeptin and sonicated for 10 seconds at 12 µ peak to peak distance. After cooling in ice, the cells were sonicated for a further 10 seconds at 18 µ. Immediately after sonication, 0.01 volumes of 8.7 mg/ml phenylmethanesulphonylfluoride in ethanol was added and the sonicates centrifuged at 15 000 g for 10 minutes at 4°C to pellet cell debris. The supernatant was kept for determination of ATase activity (see below).
(§2) Cells were diluted to 10^6/ml in culture medium containing either the appropriate concentration of inactivator or an equivalent volume of vehicle (DMSO). Following incubation at 37°C for 2 hours the cells were harvested by centrifugation, washed twice with PBS and the resulting cell pellets (between 1-2 x 10^7 per pellet) stored at -20°C.

Raji cells [4] = test: Sensitization of Raji cells to BCNU (XTT assay); format: cell-based, human; conditions: BCNU, 2 hour pretreatment; for Raji sensitization (D90.^C/D90.^I) 0.5µM: inactivator 0.5µM; for Raji sensitization (D90.^C/D90.^I) 1.0µM: inactivator 1.0µM; for Raji sensitization (D90.^C/D90.^I) O.1µM: inactivator O.1µM
Protocol: (§3) Following a 2 hour incubation at 37°C, medium containing either increasing doses of BCNU, temozolomide or equivalent vehicle was added and the cells allowed to grow for 6 days. At this time XTT solution was added and the cells incubated for a further 4 hours at 37°C. The resulting red/orange formazan reaction product was quantified by measuring absorption at 450nm on a microtitre platereader.

human bone marrow cells = test: Sensitization of bone marrow cells to temozolomide (GM-CFC assay); format: cell-based; conditions: three samples tested (BeG: all three; B.4205: two of these), Fig. 14, in words
Description: For the granulocyte/macrophage colony-forming cell (GM-CFC) assay primary human bone marrow samples were obtained from patients undergoing cardiothoracic surgery. […] The colonies represented precursor cells of the granulocyte/macrophage lineage (huGM-CFC). Survival was expressed as a % of the number of colonies at zero dose temozolomide.

[5] = Inactivator toxicity in bone marrow cells (GM-CFC colonies, inactivator alone); format: cell-based, human; conditions: human, bone marrow gm-cfc, inactivator 10uM, read-out: No. of colonies as % of control (ie no inactivator)
Description: For the granulocyte/macrophage colony-forming cell (GM-CFC) assay primary human bone marrow samples were obtained from patients undergoing cardiothoracic surgery. […] The colonies represented precursor cells of the granulocyte/macrophage lineage (huGM-CFC). […]

ATase [6] = target: T2, ATase (Rattus norvegicus, UniProt P24528); test: Inactivation of ATase activity in Yoshida cells; format: cell-based
T2 construct: endogenous in cells; host or cells: Yoshida
T2 sequence (P24528 1-209): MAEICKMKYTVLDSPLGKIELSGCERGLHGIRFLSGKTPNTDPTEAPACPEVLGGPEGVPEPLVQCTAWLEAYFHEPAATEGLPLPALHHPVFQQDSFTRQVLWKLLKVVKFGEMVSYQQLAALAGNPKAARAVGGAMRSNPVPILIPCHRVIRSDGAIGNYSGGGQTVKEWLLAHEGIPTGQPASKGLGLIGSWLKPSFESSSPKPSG
Protocol: as §1
as §2, with “-20°C. ATase activity was determined as described above, in duplicate sonicated cell extracts and expressed as the percentage activity remaining based on that present in the untreated controls (for example 350-450 fm/mg in Raji cells).” for “-20°C.”

Raji cells [7] = test: Sensitization of Raji cells to temozolomide (XTT assay); format: cell-based, human; conditions: inactivator 0.1 to 5.0µM, Figures 3 and 4, in words
Protocol: as §3

[8] = Toxicity of inactivator in combination with BCNU in xenograft-bearing mice (survival); format: in vivo, nude mice; conditions: mouse, in vivo, ip; in combination with BCNU, Figs. 9-13; read-out: death of treated animals
Protocol: 0X6 OPT, England (OLAC mice). […] For this reason lower doses were administered.
Xenograft tumour measurements were taken every 1-2 days by workers using digital calipers. Tumour volume was calculated using the formula (h x w x 1) π/6. The experimental animals were also weighed every 1-2 days. Measurements continued until tumours in the control animals reached the maximum allowable volume (i.e. 1cm x 1cm x 1cm).

[9] = 0.1mM in PBS (pH 7-7.2), read-out: T1/2(h) in PBS (converted)
[10] = 0.1mM in buffer I (1mM EDTA, 50mM Tris pH 8.3), read-out: T1/2(h) in Buffer I (converted)

| Compound | A375M sensitization (D50.^C/D50.^I) 1.0uM (A375M cells) | half-life at 100 µM [1, 9] | IC50 (ATase [2]) | IC50 (ATase [3]) | Raji sensitization (D90.^C/D90.^I) 0.5µM (Raji cells [4]) | Raji sensitization (D90.^C/D90.^I) 1.0µM (Raji cells [4]) | Raji sensitization (D90.^C/D90.^I) O.1µM (Raji cells [4]) | A375M sensitization (D50.^C/D50.^I) 0.5uM (A375M cells) | A375M sensitization (D50.^C/D50.^I) 5.0uM (A375M cells) | half-life at 100 µM [1, 10] | sensitization of GM-CFCs in human bone marrow samples to the toxic effects of temozolomide (human bone marrow cells) | viability at 216 h, 10 µM ([5]; Patient A) | viability at 216 h, 10 µM ([5]; Patient B) | viability at 216 h, 10 µM ([5]; Patient C) | viability at 216 h, 10 µM ([5]; Patient D) | viability at 216 h, 10 µM ([5]; Patient E) | IC50 (ATase [6]) | dose response of sensitization of Raji cells to temozolomide (Raji cells [7]) | mortality [8] |
| --- | --- | --- | --- | --- | --- | --- | --- | --- | --- | --- | --- | --- | --- | --- | --- | --- | --- | --- | --- |
| Cc1ccsc1COc1nc(N)nc2[nH]cnc12 [B.4222, O^6-(3-methylthenyl)guanine] | 1.4 | > 16 h | 650 nM | 470 nM | 1.9 | 2.1 | 1.4 |  |  |  |  |  |  |  |  |  |  |  |  |
| Nc1nc(OCc2cc3ccccc3s2)c2nc[nH]c2n1 [B.4226, O^6-(2-benzo[b]thienylmethyl)guanine] |  | 6.7 h | 30 nM | 60 nM | 1.6 | 10.0 | 1.6 | 3.8 | 4.5 | 9.7 h |  |  |  |  |  |  |  |  |  |
| COC(=O)c1ccc(COc2nc(N)nc3[nH]cnc23)o1 [B.4229, O^6-(5-methoxycarbonylfurfuryl)guanine] | 1.8 | > 16 h | 90 nM | 250 nM | 2.1 | 2.5 | 1.2 |  |  |  |  |  |  |  |  |  |  |  |  |
| Nc1nc(OCc2ccc(C(=O)O)o2)c2nc[nH]c2n1 [B.4234, O^6-(5-carboxyfurfuryl)guanine] | 0.8 | > 16 h | 60000 nM | > 1000 nM | 1.0 | 1.0 | 1.0 |  |  |  |  |  |  |  |  |  |  |  |  |
| Nc1nc(OCc2ccccc2)c2nc[nH]c2n1 [O^6-benzylguanine, reference compound] | 2.3 | > 16 h |  |  | *2.0 ± 0.4 | *3.8 ± 1.8 | *1.9 ± 0.7 | 3.1 | 4.2 | > 64 h | sensitised | 95% | 46% | 88% | 88% | 89% | 140 nM | clear dose response | ≤ 70% |
